Results reported in patent publication US20100324142A1, “HYDROCORTISONE DERIVATIVES AND USE THEREOF FOR THERAPEUTIC OR COSMETIC INDICATIONS” (priority 2007, published 2010).

Tested on: physiopathological hair loss of unknown cause (patients suffering from alopecia)
Assay: Double blind clinical trial on two hundred patients suffering from alopecia
Type: in vivo, human
Protocol: Clinical Trial (Double Blind) on Two Hundred Patients Suffering from Alopecia
The action of the compound according to the invention, produced as described in Example 1, was assessed on a sample population of two hundred people, half of whom were of the female sex. All the persons included in the sample had been affected for at least four months by physiopathological hair loss of unknown cause.
A double blind trial was set up, in which one hundred patients were administered with a solution containing the compound according to the invention in bidistilled water and one hundred received a placebo solution. The solution according to the invention contained as excipients: sodium hydroxide, benzyl benzoate and benzalkonium chloride.

CC1(CCC(=O)O)C(=O)CCC2C1C(O)CC1(C)C2CCC1(O)C(=O)CO (stereo not drawn) [compound according to the invention, 3-[3,5-dihydroxy-3-(2-hydroxy-acetyl)-3a,6-dimethyl-7-oxo-dodecahydro-cyclo-penta[α]naphtalen-6-yl]-propionic acid]
patients with good hair regrowth observed (at the end of the trial, solution of the compound in bidistilled water, one hundred treated patients): 38% | adverse side effects (even after many months of treatment): total absence of adverse side effects | subjects in whom hair loss was arrested (within the first week of treatment, solution of the compound in bidistilled water, one hundred treated patients, double blind vs placebo): 94%
